According to patent US20230232833A1, “Synergistic Compositions for the Control of Mosquito-Borne Diseases” (Universite d'Angers, priority 2020, published 2023):

Tests used:
[1] = test system: Anopheles gambiae larvae of resistant strain AcerKis; assay: Larval sensitivity test (cup test), AcerKis strain; type: in vivo; details: for LC10 - 24 hours / LC10 - 48 hours: AcerKis larvae, graphical projection from log-probit regression curves; for LC10 - 24 hours: 24 hours exposure; for LC10 - 48 hours: 48 hours exposure
Procedure: Larval Testing Protocol. The larval sensitivity test or cup test, which was used in the present study, assesses the sensitivity of mosquito larvae to insecticides and repellents. The larvae were placed in cups containing 100 mL of osmosis water added with the substance to be tested or with only solvent in the case of the controls (see FIG. 3). Four containers (cups) of 25 larvae were exposed to one modality, for a total of 100 larvae. The mortality rate was observed 24 hours after exposure to the insecticide. The mosquitoes used were late L3/early L4 larvae (last larval stages) of Anopheles gambiae, sensitive Kis reference strain and a resistant strain AcerKis, grown in the MIVEGEC laboratory under standardized conditions.
(§1) Methodology of the WHO-certified Test of the Sensitivity of Larvae to Insectivides and Repellents. The sensitivity to insecticides and repellents of the Anopheles gambia mosquito larvae of the sensitive Kis strain and of the resistant AcerKis and KdrKis strains, was determined using the larval sensitivity test (or WHO-certified cup test). The larvae, selected at the L3/L4 stages, were placed in cups containing 100 mL of osmosis water in the presence of the substance to be tested or only the solvent in the case of controls. Four cups of 25 larvae were exposed to one modality, for a total of 100 larvae. The mortality rate was observed 24 […] and 48 hours after exposure to the insecticide. The mortality rates presented herein were corrected for the mortality observed in the controls of each replicate according to the Abbott formula (Abbott, J. Econom. Entomol., 1925, 18: 265-267).

[2] = test system: Anopheles gambiae larvae of resistant strain KdrKis; assay: Larval sensitivity test (WHO-certified cup test), KdrKis strain; type: in vivo; details: for LC10 - 24 hours / LC10 - 48 hours: KdrKis larvae, graphical projection from log-probit regression curves; for LC10 - 24 hours: 24 hours exposure; for LC10 - 48 hours: 48 hours exposure
Procedure: as §1

SMILES | Mortality rate of larvae ([1]; AcerKis, IR3535 alone 1000 to 4000 mg/L, 24 and 48 hours) | Mortality rate of larvae ([2]; KdrKis, IR3535 alone 1000 to 4000 mg/L, 24 and 48 hours) | LC10 - 24 hours [1] [mg/L] | LC10 - 48 hours [1] [mg/L] | LC10 - 24 hours [2] [mg/L] | LC10 - 48 hours [2] [mg/L]
CCCCN(CCC(=O)OCC)C(C)=O [IR3535, ethyl N-acetyl-N-butyl-β-alaninate] | less than 5% | less than 5% |  |  |  | 
CN1COCN(Cc2cnc(Cl)s2)C1=N[N+](=O)[O-] [Thiamethoxam, 3-[(2-Chloro-1,3-thiazol-5-yl)methyl]-5-methyl-N-nitro-1,3,5-oxadiazinan-4-imine] |  |  | 0.04 | 0.01 | 0.04 | 0.02
N#C/N=C1\SCCN1Cc1ccc(Cl)nc1 [Thiacloprid, {(2Z)-3-[(6-Chloropyridin-3-yl)methyl]-1,3-thiazolidin-2-ylidene}cyanamide] |  |  | 0.02 | 0.01 | 0.02 | 0.01
